According to patent US20250098679A1, “HERBICIDAL PYRIDONE DERIVATIVES” (SYNGENTA CROP PROTECTION AG, priority 2021, published 2025):

Legend:
Type in all cases: in vivo
[1] = tested on: Echinochloa crus-galli (ECHCG); experiment: Pre-emergence Test, Echinochloa crus-galli (ECHCG); conditions: evaluated after 13 days
[2] = tested on: Zea mays (ZEAMX); experiment: Pre-emergence Test, Zea mays (ZEAMX); conditions: evaluated after 13 days
[3] = tested on: Ipomoea hederacea (IPOHE); experiment: Pre-emergence Test, Ipomoea hederacea (IPOHE); conditions: evaluated after 13 days
[4] = tested on: Amaranthus palmeri (AMAPA); experiment: Pre-emergence Test, Amaranthus palmeri (AMAPA); conditions: evaluated after 13 days
[5] = tested on: Amaranthus retoflexus (AMARE); experiment: Pre-emergence Test, Amaranthus retoflexus (AMARE); conditions: evaluated after 13 days
[6] = tested on: Setaria faberi (SETFA); experiment: Post-emergence Test, Setaria faberi (SETFA); design: key to percentage damage caused to the plant, SETFA (five-point scale): 5=81-100%, 4=61-80%, 3=41-60%, 2=21-40%, 1=0-20% damage; conditions: 1000 g/ha, evaluated after 13 days
Outline: (§1)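 Percent plant damage was rated 13 days post-application on a 1–5 scale (1=0-20%, 5=81-100%). Application used an aqueous acetone (50:50)/0.5% Tween 20 spray, normally 1000 g/ha, with controlled glasshouse conditions (24/16 °C, 14 h light, 65% humidity).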

[7] = tested on: Echinochloa crus-galli (ECHCG); experiment: Post-emergence Test, Echinochloa crus-galli (ECHCG); design: key to percentage damage caused to the plant, ECHCG (five-point scale): 5=81-100%, 4=61-80%, 3=41-60%, 2=21-40%, 1=0-20% damage; conditions: evaluated after 13 days; for percentage damage caused to the plant, ECHCG (five-point scale): 250 g/Ha; for Post-emergence Test ECHCG, percentage damage caused to the plant (five-point scale): 250 g/Ha (*)
Outline: as §1

[8] = tested on: Zea mays (ZEAMX); experiment: Post-emergence Test, Zea mays (ZEAMX); design: key to percentage damage caused to the plant, ZEAMX (five-point scale): 5=81-100%, 4=61-80%, 3=41-60%, 2=21-40%, 1=0-20% damage; conditions: evaluated after 13 days
Outline: as §1

[9] = tested on: Ipomoea hederacea (IPOHE); experiment: Post-emergence Test, Ipomoea hederacea (IPOHE); design: key to percentage damage caused to the plant, IPOHE (five-point scale): 5=81-100%, 4=61-80%, 3=41-60%, 2=21-40%, 1=0-20% damage; conditions: evaluated after 13 days
Outline: as §1

[10] = tested on: Amaranthus palmeri (AMAPA); experiment: Post-emergence Test, Amaranthus palmeri (AMAPA); design: key: 5=81-100%, 4=61-80%, 3=41-60%, 2=21-40%, 1=0-20% damage; conditions: evaluated after 13 days
Outline: as §1

[11] = tested on: Amaranthus retoflexus (AMARE); experiment: Post-emergence Test, Amaranthus retoflexus (AMARE); design: key to percentage damage caused to the plant, AMARE (five-point scale): 5=81-100%, 4=61-80%, 3=41-60%, 2=21-40%, 1=0-20% damage; conditions: evaluated after 13 days
Outline: as §1

CCn1c(Cn2nc(C(F)F)cc2C)cc(=O)c(C(=O)O)c1-c1ccc(Cl)c(Cl)c1 [Compound 187, 2-(3,4-dichlorophenyl)-6-[[3-(difluoromethyl)-5-methyl-pyrazol-1-yl]methyl]-1-ethyl-4-oxo-pyridine-3-carboxylic acid]
Pre-emergence Test ECHCG, percentage damage caused to the plant (five-point scale) ([1]; 1000 g/ha): 1 (1=0-20%)
Pre-emergence Test ZEAMX, percentage damage caused to the plant (five-point scale) ([2]; 1000 g/ha): 1 (1=0-20%)
Pre-emergence Test IPOHE, percentage damage caused to the plant (five-point scale) ([3]; 1000 g/ha): 3 (3=41-60%)
Pre-emergence Test AMAPA, percentage damage caused to the plant (five-point scale) ([4]; 1000 g/ha): 0
Pre-emergence Test AMARE, percentage damage caused to the plant (five-point scale) ([5]; 1000 g/ha): 0
percentage damage caused to the plant, SETFA (five-point scale) [6]: 1 (1=0-20%)
percentage damage caused to the plant, ECHCG (five-point scale) [7]: 2 (2=21-40%)
percentage damage caused to the plant, ZEAMX (five-point scale) ([8]; 250 g/Ha): 0
percentage damage caused to the plant, ZEAMX (five-point scale) ([8]; 1000 g/ha): 1 (1=0-20%)
percentage damage caused to the plant, IPOHE (five-point scale) ([9]; 250 g/Ha): 1 (1=0-20%)
percentage damage caused to the plant, IPOHE (five-point scale) ([9]; 1000 g/ha): 4 (4=61-80%)
percentage damage caused to the plant, AMAPA (five-point scale) ([10]; 250 g/Ha): 0
percentage damage caused to the plant, AMAPA (five-point scale) ([10]; 1000 g/ha): 1 (1=0-20%)
percentage damage caused to the plant, AMARE (five-point scale) ([11]; 250 g/Ha): 0
percentage damage caused to the plant, AMARE (five-point scale) ([11]; 1000 g/ha): 1 (1=0-20%)

CCn1c(Cn2nccc2COC)cc(=O)c(C(=O)O)c1-c1ccc(Cl)c(Cl)c1 [Compound 190, 2-(3,4-dichlorophenyl)-1-ethyl-6-[[5-(methoxymethyl)pyrazol-1-yl]methyl]-4-oxo-pyridine-3-carboxylic acid]
Pre-emergence Test ECHCG, percentage damage caused to the plant (five-point scale) ([1]; 250 g/Ha (*)): 1 (1=0-20%)
Pre-emergence Test ECHCG, percentage damage caused to the plant (five-point scale) ([1]; 1000 g/ha): 4 (4=61-80%)
Pre-emergence Test ZEAMX, percentage damage caused to the plant (five-point scale) ([2]; 250 g/Ha (*)): 1 (1=0-20%)
Pre-emergence Test ZEAMX, percentage damage caused to the plant (five-point scale) ([2]; 1000 g/ha): 2 (2=21-40%)
Pre-emergence Test IPOHE, percentage damage caused to the plant (five-point scale) ([3]; 250 g/Ha (*)): 1 (1=0-20%)
Pre-emergence Test IPOHE, percentage damage caused to the plant (five-point scale) ([3]; 1000 g/ha): 3 (3=41-60%)
Pre-emergence Test AMAPA, percentage damage caused to the plant (five-point scale) ([4]; 250 g/Ha (*)): 0
Pre-emergence Test AMAPA, percentage damage caused to the plant (five-point scale) ([4]; 1000 g/ha): 1 (1=0-20%)
Pre-emergence Test AMARE, percentage damage caused to the plant (five-point scale) ([5]; 250 g/Ha (*)): 0
Pre-emergence Test AMARE, percentage damage caused to the plant (five-point scale) ([5]; 1000 g/ha): 1 (1=0-20%)
percentage damage caused to the plant, SETFA (five-point scale) [6]: 4 (4=61-80%)
percentage damage caused to the plant, ECHCG (five-point scale) [7]: 3 (3=41-60%)
percentage damage caused to the plant, ZEAMX (five-point scale) ([8]; 250 g/Ha): 0
percentage damage caused to the plant, ZEAMX (five-point scale) ([8]; 1000 g/ha): 3 (3=41-60%)
percentage damage caused to the plant, IPOHE (five-point scale) ([9]; 250 g/Ha): 1 (1=0-20%)
percentage damage caused to the plant, IPOHE (five-point scale) ([9]; 1000 g/ha): 3 (3=41-60%)
percentage damage caused to the plant, AMAPA (five-point scale) ([10]; 250 g/Ha): 1 (1=0-20%)
percentage damage caused to the plant, AMAPA (five-point scale) ([10]; 1000 g/ha): 1 (1=0-20%)
percentage damage caused to the plant, AMARE (five-point scale) ([11]; 250 g/Ha): 1 (1=0-20%)
percentage damage caused to the plant, AMARE (five-point scale) ([11]; 1000 g/ha): 2 (2=21-40%)

CCn1c(Cn2ccc(-c3ccc(F)cc3)n2)cc(=O)c(C(=O)O)c1-c1ccc(Cl)c(Cl)c1 [Compound 193, 2-(3,4-dichlorophenyl)-1-ethyl-6-[[3-(4-fluorophenyl)pyrazol-1-yl]methyl]-4-oxo-pyridine-3-carboxylic acid]
Pre-emergence Test ECHCG, percentage damage caused to the plant (five-point scale) ([1]; 1000 g/ha): 0
Pre-emergence Test ZEAMX, percentage damage caused to the plant (five-point scale) ([2]; 1000 g/ha): 0
Pre-emergence Test IPOHE, percentage damage caused to the plant (five-point scale) ([3]; 1000 g/ha): 1 (1=0-20%)
Pre-emergence Test AMAPA, percentage damage caused to the plant (five-point scale) ([4]; 1000 g/ha): 0
Pre-emergence Test AMARE, percentage damage caused to the plant (five-point scale) ([5]; 1000 g/ha): 0
percentage damage caused to the plant, SETFA (five-point scale) [6]: 0
percentage damage caused to the plant, ECHCG (five-point scale) [7]: 3 (3=41-60%)
percentage damage caused to the plant, ZEAMX (five-point scale) ([8]; 250 g/Ha): 0
percentage damage caused to the plant, ZEAMX (five-point scale) ([8]; 1000 g/ha): 1 (1=0-20%)
percentage damage caused to the plant, IPOHE (five-point scale) ([9]; 250 g/Ha): 0
percentage damage caused to the plant, IPOHE (five-point scale) ([9]; 1000 g/ha): 2 (2=21-40%)
percentage damage caused to the plant, AMAPA (five-point scale) ([10]; 250 g/Ha): 0
percentage damage caused to the plant, AMAPA (five-point scale) ([10]; 1000 g/ha): 1 (1=0-20%)
percentage damage caused to the plant, AMARE (five-point scale) ([11]; 250 g/Ha): 0
percentage damage caused to the plant, AMARE (five-point scale) ([11]; 1000 g/ha): 1 (1=0-20%)

CCn1c(Cn2ccc(-c3cccs3)n2)cc(=O)c(C(=O)O)c1-c1ccc(Cl)c(Cl)c1 [Compound 194, 2-(3,4-dichlorophenyl)-1-ethyl-4-oxo-6-[[3-(2-thienyl)pyrazol-1-yl]methyl]pyridine-3-carboxylic acid]
Pre-emergence Test ECHCG, percentage damage caused to the plant (five-point scale) ([1]; 250 g/Ha (*)): 1 (1=0-20%)
Pre-emergence Test ECHCG, percentage damage caused to the plant (five-point scale) ([1]; 1000 g/ha): 2 (2=21-40%)
Pre-emergence Test ZEAMX, percentage damage caused to the plant (five-point scale) ([2]; 250 g/Ha (*)): 0
Pre-emergence Test ZEAMX, percentage damage caused to the plant (five-point scale) ([2]; 1000 g/ha): 1 (1=0-20%)
Pre-emergence Test IPOHE, percentage damage caused to the plant (five-point scale) ([3]; 250 g/Ha (*)): 1 (1=0-20%)
Pre-emergence Test IPOHE, percentage damage caused to the plant (five-point scale) ([3]; 1000 g/ha): 2 (2=21-40%)
Pre-emergence Test AMAPA, percentage damage caused to the plant (five-point scale) ([4]; 250 g/Ha (*)): 0
Pre-emergence Test AMAPA, percentage damage caused to the plant (five-point scale) ([4]; 1000 g/ha): 0
Pre-emergence Test AMARE, percentage damage caused to the plant (five-point scale) ([5]; 250 g/Ha (*)): 0
Pre-emergence Test AMARE, percentage damage caused to the plant (five-point scale) ([5]; 1000 g/ha): 0
Post-emergence Test SETFA, percentage damage caused to the plant (five-point scale) [6]: 3 (3=41-60%)
Post-emergence Test ECHCG, percentage damage caused to the plant (five-point scale) [7]: 2 (2=21-40%)
Post-emergence Test ZEAMX, percentage damage caused to the plant (five-point scale) ([8]; 250 g/Ha (*)): 1 (1=0-20%)
Post-emergence Test ZEAMX, percentage damage caused to the plant (five-point scale) ([8]; 1000 g/ha): 1 (1=0-20%)
Post-emergence Test IPOHE, percentage damage caused to the plant (five-point scale) ([9]; 250 g/Ha (*)): 1 (1=0-20%)
Post-emergence Test IPOHE, percentage damage caused to the plant (five-point scale) ([9]; 1000 g/ha): 2 (2=21-40%)
Post-emergence Test AMAPA, percentage damage caused to the plant (five-point scale) ([10]; 250 g/Ha (*)): 0
Post-emergence Test AMAPA, percentage damage caused to the plant (five-point scale) ([10]; 1000 g/ha): 1 (1=0-20%)
Post-emergence Test AMARE, percentage damage caused to the plant (five-point scale) ([11]; 250 g/Ha (*)): 0
Post-emergence Test AMARE, percentage damage caused to the plant (five-point scale) ([11]; 1000 g/ha): 2 (2=21-40%)

CCn1c(Cn2nc(-c3ccccc3)cc2C(F)(F)F)cc(=O)c(C(=O)O)c1-c1ccc(Cl)c(Cl)c1 [Compound 198, 2-(3,4-dichlorophenyl)-1-ethyl-4-oxo-6-[[3-phenyl-5-(trifluoromethyl)pyrazol-1-yl]methyl]pyridine-3-carboxylic acid]
Pre-emergence Test ECHCG, percentage damage caused to the plant (five-point scale) ([1]; 1000 g/ha): 1 (1=0-20%)
Pre-emergence Test ZEAMX, percentage damage caused to the plant (five-point scale) ([2]; 1000 g/ha): 1 (1=0-20%)
Pre-emergence Test IPOHE, percentage damage caused to the plant (five-point scale) ([3]; 1000 g/ha): 0
Pre-emergence Test AMAPA, percentage damage caused to the plant (five-point scale) ([4]; 1000 g/ha): 1 (1=0-20%)
Pre-emergence Test AMARE, percentage damage caused to the plant (five-point scale) ([5]; 1000 g/ha): 1 (1=0-20%)
Post-emergence Test SETFA, percentage damage caused to the plant (five-point scale) [6]: 2 (2=21-40%)
Post-emergence Test ECHCG, percentage damage caused to the plant (five-point scale) [7]: 2 (2=21-40%)
Post-emergence Test ZEAMX, percentage damage caused to the plant (five-point scale) ([8]; 250 g/Ha (*)): 1 (1=0-20%)
Post-emergence Test ZEAMX, percentage damage caused to the plant (five-point scale) ([8]; 1000 g/ha): 2 (2=21-40%)
Post-emergence Test IPOHE, percentage damage caused to the plant (five-point scale) ([9]; 250 g/Ha (*)): 1 (1=0-20%)
Post-emergence Test IPOHE, percentage damage caused to the plant (five-point scale) ([9]; 1000 g/ha): 2 (2=21-40%)
Post-emergence Test AMAPA, percentage damage caused to the plant (five-point scale) ([10]; 250 g/Ha (*)): 1 (1=0-20%)
Post-emergence Test AMAPA, percentage damage caused to the plant (five-point scale) ([10]; 1000 g/ha): 3 (3=41-60%)
Post-emergence Test AMARE, percentage damage caused to the plant (five-point scale) ([11]; 250 g/Ha (*)): 1 (1=0-20%)
Post-emergence Test AMARE, percentage damage caused to the plant (five-point scale) ([11]; 1000 g/ha): 4 (4=61-80%)
